Legend:
[1] = Therapeutic drug monitoring of teicoplanin concentration after drug withdrawal, LC-MS/MS; type: in vivo, human; conditions: for TDM Withdraw 8-14d (teicoplanin concentration): 8–14 days after last dose (withdrawal); for TDM Withdraw 8-14d (teicoplanin concentration) / TDM Withdraw 3d (teicoplanin concentration) / TDM Withdraw ≤ 7d (teicoplanin concentration) / TDM Withdraw ≥ 15d (teicoplanin concentration): median [IQR], LC-MS/MS; for TDM Withdraw 3d (teicoplanin concentration): 3 days after last dose (withdrawal); for TDM Withdraw ≤ 7d (teicoplanin concentration): ≤ 7 days after last dose (withdrawal); for TDM Withdraw ≥ 15d (teicoplanin concentration): ≥ 15 days after last dose (withdrawal); for patients with TDM 10–20 mg/L Withdraw ≥ 15d, N (%) / patients with TDM < 10 mg/L Withdraw ≥ 15d, N (%) / patients with TDM > 20 mg/L Withdraw ≥ 15d, N (%): ≥ 15 days after last dose
Method: Teicoplanin (Targocid, Sanofi, Dublin, Ireland) was administered intravenously for 30 min. The prescribed dose regimens were at the discretion of treating physicians, and the recommended regimens were not always followed.
Blood samples (5 mL) were collected from the elbow into ethylenediaminetetraacetic acid-containing Vacutainers® (Becton Dickinson, Milan, Italy) in the morning before teicoplanin administration and after drug withdrawal. Samples were promptly refrigerated and centrifuged at 2500 × g for 10 min before 2 mL of supernatant was preserved at -20 °C for subsequent analysis. Teicoplanin concentrations were determined using liquid chromatography-tandem mass spectrometry. The linear range of the method was 1.0–100.0 mg/L, and the lower limit of quantification was 1.0 mg/L. The relative standard deviation of intra- and inter-batch precision was ≤ 10%.
Teicoplanin concentrations were dynamically monitored. Concentrations at 3, ≤ 7, 8–14, and ≥ 15 days after the first dose and within 2 h of the next scheduled dose were recorded as TDM3d, TDM≤7d, TDM8-14d, and TDM≥15d, respectively. Concentrations at 3, ≤ 7, 8–14, and ≥ 15 days after the last teicoplanin dose (withdrawal) were recorded as TDMw3d, TDMw≤7d, TDMw8-14d, and TDMw≥15d. respectively (Fig. 1a). The Cmin target was ≥ 10 mg/L [6, 7, 23]; a concentration < 10 mg/L was considered suboptimal. Average TDM (TDMa) was defined as the mean Cmin after 3 days of treatment.

[2] = Thrombocytopenia during teicoplanin treatment; type: in vivo, human
Excerpt: Patients with platelet counts < 100 × 10^9/L at baseline were excluded. Thrombocytopenia was defined as a decrease in the platelet count of > 30% from baseline.

[3] = LR-A + MR-A (200 mg once daily, then 200 mg once daily)
[4] = LR-B + MR-A (400 mg once daily, then 200 mg once daily)
[5] = LR-C + MR-B (400 mg at 12-h intervals, then 400 mg once daily)
[6] = 8–14 days after last dose, LR-A + MR-A
[7] = 8–14 days after last dose, LR-B + MR-A
[8] = 8–14 days after last dose, LR-C + MR-B
[9] = LR-B + MR-B (400 mg once daily, then 400 mg once daily)
[10] = LR-C + MR-C (400 mg at 12-h intervals, then 400 mg twice daily)
[11] = 3 days after last dose, LR-A + MR-A
[12] = 3 days after last dose, LR-B + MR-A
[13] = 3 days after last dose, LR-B + MR-B
[14] = 3 days after last dose, LR-C + MR-B
[15] = 3 days after last dose, LR-C + MR-C
[16] = ≤ 7 days after last dose, LR-A + MR-A
[17] = ≤ 7 days after last dose, LR-B + MR-A
[18] = ≤ 7 days after last dose, LR-B + MR-B
[19] = ≤ 7 days after last dose, LR-C + MR-B
[20] = ≤ 7 days after last dose, LR-C + MR-C

TDM Withdraw 8-14d (teicoplanin concentration) [1, 3]: 5.5[3.8,7.6] mg/L
TDM Withdraw 8-14d (teicoplanin concentration) [1, 4]: 5.0[3.4,6.6] mg/L
TDM Withdraw 8-14d (teicoplanin concentration) [1, 5]: 0[0,2.5] mg/L
TDM Withdraw 8-14d (teicoplanin concentration) ([1]; all patients (N = 204)): 5.3[3.3,7.0] mg/L
patients with TDM 10–20 mg/L Withdraw 8-14d, N (%) [1, 6]: 8(16.0)
patients with TDM < 10 mg/L Withdraw 8-14d, N (%) [1, 6]: 42(84.0)
patients with TDM > 20 mg/L Withdraw 8-14d, N (%) [1, 6]: 0
patients with TDM 10–20 mg/L Withdraw 8-14d, N (%) [1, 7]: 7(14.6)
patients with TDM < 10 mg/L Withdraw 8-14d, N (%) [1, 7]: 40(83.3)
patients with TDM > 20 mg/L Withdraw 8-14d, N (%) [1, 7]: 1(2.1)
patients with TDM 10–20 mg/L Withdraw 8-14d, N (%) [1, 8]: 0
patients with TDM < 10 mg/L Withdraw 8-14d, N (%) [1, 8]: 4(100)
patients with TDM > 20 mg/L Withdraw 8-14d, N (%) [1, 8]: 0
patients having concentrations of 10–20 mg/L, TDMw8-14d ([1]; 8–14 days after last dose, all patients, 15 patients): 14.6%
patients having concentrations exceeding 20 mg/L, TDMw8-14d ([1]; 8–14 days after last dose, all patients, one patient): 1.0%
patients in whom the target concentration (≥ 10 mg/L) was achieved after withdrawal ([1]; 8–14 days after withdrawal, all patients): 15.6%
TDM Withdraw 3d (teicoplanin concentration) [1, 3]: 11.1[8.2,16.5] mg/L
TDM Withdraw 3d (teicoplanin concentration) [1, 4]: 9.6[7.2,13.8] mg/L
TDM Withdraw 3d (teicoplanin concentration) [1, 9]: 16.3[9.4,20.2] mg/L
TDM Withdraw 3d (teicoplanin concentration) [1, 5]: 8.4[5.3,11.7] mg/L
TDM Withdraw 3d (teicoplanin concentration) [1, 10]: 12.4[7.9,15.6] mg/L
TDM Withdraw 3d (teicoplanin concentration) ([1]; all patients (N = 204)): 10.6[7.9,15.6] mg/L
patients with TDM 10–20 mg/L Withdraw 3d, N (%) [1, 11]: 7(53.8)
patients with TDM < 10 mg/L Withdraw 3d, N (%) [1, 11]: 5(38.5)
patients with TDM > 20 mg/L Withdraw 3d, N (%) [1, 11]: 1(7.7)
patients with TDM 10–20 mg/L Withdraw 3d, N (%) [1, 12]: 6(42.9)
patients with TDM < 10 mg/L Withdraw 3d, N (%) [1, 12]: 7(50.0)
patients with TDM > 20 mg/L Withdraw 3d, N (%) [1, 12]: 1(7.1)
patients with TDM 10–20 mg/L Withdraw 3d, N (%) [1, 13]: 3(60)
patients with TDM < 10 mg/L Withdraw 3d, N (%) [1, 13]: 1(20)
patients with TDM > 20 mg/L Withdraw 3d, N (%) [1, 13]: 1(20)
patients with TDM 10–20 mg/L Withdraw 3d, N (%) [1, 14]: 2(25.0)
patients with TDM < 10 mg/L Withdraw 3d, N (%) [1, 14]: 6(75.0)
patients with TDM > 20 mg/L Withdraw 3d, N (%) [1, 14]: 0
patients with TDM 10–20 mg/L Withdraw 3d, N (%) [1, 15]: 4(44.4)
patients with TDM < 10 mg/L Withdraw 3d, N (%) [1, 15]: 4(44.4)
patients with TDM > 20 mg/L Withdraw 3d, N (%) [1, 15]: 1(11.2)
patients having concentrations of 10–20 mg/L, TDMw3d ([1]; 3 days after last dose, all patients, 22 patients): 44.9%
patients having concentrations exceeding 20 mg/L, TDMw3d ([1]; 3 days after last dose, all patients, four patients): 8.2%
patients in whom the target concentration (≥ 10 mg/L) was achieved after withdrawal ([1]; 3 days after withdrawal, all patients): 53.1%
TDM Withdraw ≤ 7d (teicoplanin concentration) [1, 3]: 7.9[5.8,11.4] mg/L
TDM Withdraw ≤ 7d (teicoplanin concentration) [1, 4]: 7.2[5.6,12.0] mg/L
TDM Withdraw ≤ 7d (teicoplanin concentration) [1, 9]: 12.3[7.7,17.0] mg/L
TDM Withdraw ≤ 7d (teicoplanin concentration) [1, 5]: 6.3[3.4,9.4] mg/L
TDM Withdraw ≤ 7d (teicoplanin concentration) [1, 10]: 7.5[3.2,15.6] mg/L
TDM Withdraw ≤ 7d (teicoplanin concentration) ([1]; all patients (N = 204)): 7.4[5.7,12.0] mg/L
patients with TDM 10–20 mg/L Withdraw ≤ 7d, N (%) [1, 16]: 13(28.3)
patients with TDM < 10 mg/L Withdraw ≤ 7d, N (%) [1, 16]: 30(65.2)
patients with TDM > 20 mg/L Withdraw ≤ 7d, N (%) [1, 16]: 3(6.5)
patients with TDM 10–20 mg/L Withdraw ≤ 7d, N (%) [1, 17]: 14(29.8)
patients with TDM < 10 mg/L Withdraw ≤ 7d, N (%) [1, 17]: 31(66.0)
patients with TDM > 20 mg/L Withdraw ≤ 7d, N (%) [1, 17]: 2(4.2)
patients with TDM 10–20 mg/L Withdraw ≤ 7d, N (%) [1, 18]: 2(40)
patients with TDM < 10 mg/L Withdraw ≤ 7d, N (%) [1, 18]: 2(40)
patients with TDM > 20 mg/L Withdraw ≤ 7d, N (%) [1, 18]: 1(20)
patients with TDM 10–20 mg/L Withdraw ≤ 7d, N (%) [1, 19]: 2(18.2)
patients with TDM < 10 mg/L Withdraw ≤ 7d, N (%) [1, 19]: 9(81.8)
patients with TDM > 20 mg/L Withdraw ≤ 7d, N (%) [1, 19]: 0
patients with TDM 10–20 mg/L Withdraw ≤ 7d, N (%) [1, 20]: 2(22.2)
patients with TDM < 10 mg/L Withdraw ≤ 7d, N (%) [1, 20]: 6(66.7)
patients with TDM > 20 mg/L Withdraw ≤ 7d, N (%) [1, 20]: 1(11.1)
patients having concentrations of 10–20 mg/L, TDMw≤7d ([1]; ≤ 7 days after last dose, all patients, 33 patients): 28.0%
patients having concentrations exceeding 20 mg/L, TDMw≤7d ([1]; ≤ 7 days after last dose, all patients, seven patients): 5.9%
patients in whom the target concentration (≥ 10 mg/L) was achieved after withdrawal ([1]; ≤ 7 days after withdrawal, all patients): 33.9%
TDM Withdraw ≥ 15d (teicoplanin concentration) [1, 3]: 4.54[0,7.3] mg/L
TDM Withdraw ≥ 15d (teicoplanin concentration) [1, 4]: 4.1[0,7.0] mg/L
TDM Withdraw ≥ 15d (teicoplanin concentration) [1, 5]: 0[0,0] mg/L
TDM Withdraw ≥ 15d (teicoplanin concentration) [1, 10]: 2.1[0,2.8] mg/L
TDM Withdraw ≥ 15d (teicoplanin concentration) ([1]; all patients (N = 204)): 3.5[0,6.4] mg/L
patients with TDM 10–20 mg/L Withdraw ≥ 15d, N (%) ([1]; LR-A + MR-A): 1(2.4)
patients with TDM < 10 mg/L Withdraw ≥ 15d, N (%) ([1]; LR-A + MR-A): 41(97.6)
patients with TDM > 20 mg/L Withdraw ≥ 15d, N (%) ([1]; LR-A + MR-A): 0
patients with TDM 10–20 mg/L Withdraw ≥ 15d, N (%) ([1]; LR-B + MR-A): 4(10.5)
patients with TDM < 10 mg/L Withdraw ≥ 15d, N (%) ([1]; LR-B + MR-A): 34(89.5)
patients with TDM > 20 mg/L Withdraw ≥ 15d, N (%) ([1]; LR-B + MR-A): 0
patients with TDM 10–20 mg/L Withdraw ≥ 15d, N (%) ([1]; LR-C + MR-B): 0
patients with TDM < 10 mg/L Withdraw ≥ 15d, N (%) ([1]; LR-C + MR-B): 5(100)
patients with TDM > 20 mg/L Withdraw ≥ 15d, N (%) ([1]; LR-C + MR-B): 0
patients with TDM 10–20 mg/L Withdraw ≥ 15d, N (%) ([1]; LR-C + MR-C): 0
patients with TDM < 10 mg/L Withdraw ≥ 15d, N (%) ([1]; LR-C + MR-C): 5(100)
patients with TDM > 20 mg/L Withdraw ≥ 15d, N (%) ([1]; LR-C + MR-C): 0
patients in whom the target concentration (≥ 10 mg/L) was achieved after withdrawal ([1]; ≥ 15 days after withdrawal, all patients): 5.5%
patients in whom teicoplanin remained detectable ([1]; ≥ 15 days after withdrawal, lower limit of quantification 1.0 mg/L): two-thirds
Substance: Teicoplanin
incidence of thrombocytopenia ([2]; TDMa < 10 mg/L (16/49)): 32.7%
incidence of thrombocytopenia ([2]; TDMa = 10–20 mg/L (12/42)): 28.6%
incidence of thrombocytopenia ([2]; TDMa = 20–40 mg/L (7/20)): 35.0%
incidence of thrombocytopenia ([2]; all evaluable patients (35/111), platelet count decrease > 30% from baseline): 31.5%
